Values quoted from earlier work, collected in patent publication US20230190754A1, “Therapeutic combinations for the treatment of Progressive Fibrosing interstitial lung diseases” (Boehringer Ingelheim International GmbH, priority 2021, published 2023).

Test system: PDE4 subtypes, A-D
Conditions: cited from earlier work

Compound | Preferential enzymatic inhibition among the PDE4 subtypes (in words)
CCOc1cc([C@@H](CS(C)(=O)=O)N2C(=O)c3cccc(NC(C)=O)c3C2=O)ccc1OC [apremilast] | None of these show any preferential enzymatic inhibition
N#Cc1ccc(Oc2ccc3c(c2)COB3O)cc1 [crisaborole] | None of these show any preferential enzymatic inhibition
O=C(Nc1c(Cl)cncc1Cl)c1ccc(OC(F)F)c(OCC2CC2)c1 [roflumilast] | None of these show any preferential enzymatic inhibition
